Values of other authors as cited in paper PMC11809490 (RSC Advances, 2025).
In brackets after ≈: the same amount, converted by molar mass.

Key:
Details in all cases: cited from earlier work
HCT-8 = test system: HCT-8
MDA-MB-231 = test system: MDA-MB-231
P388 = test system: P388
A-549 = test system: A-549

Compound: CN1C[C@@H](c2c[nH]c3cc(Br)ccc23)N(C)C[C@@H]1c1c[nH]c2cc(Br)ccc12 [Dragmacidin B]
- IC50 HCT-8 (HCT-8): 1 to 10 µg/mL
- IC50 MDA-MB-231 (MDA-MB-231): 1 to 10 µg/mL
- IC50 P388 (P388): 15 µg/mL (≈ 29.9 µM)
- IC50 A-549 (A-549): 1 to 10 µg/mL
